Structures are written as SMILES.

The target in this assay is T1, 1-deoxy-D-xylulose 5-phosphate synthase (DXPS) (Escherichia coli, UniProt P77488).
T1 construct: gene dxs
T1 sequence (P77488 2-620): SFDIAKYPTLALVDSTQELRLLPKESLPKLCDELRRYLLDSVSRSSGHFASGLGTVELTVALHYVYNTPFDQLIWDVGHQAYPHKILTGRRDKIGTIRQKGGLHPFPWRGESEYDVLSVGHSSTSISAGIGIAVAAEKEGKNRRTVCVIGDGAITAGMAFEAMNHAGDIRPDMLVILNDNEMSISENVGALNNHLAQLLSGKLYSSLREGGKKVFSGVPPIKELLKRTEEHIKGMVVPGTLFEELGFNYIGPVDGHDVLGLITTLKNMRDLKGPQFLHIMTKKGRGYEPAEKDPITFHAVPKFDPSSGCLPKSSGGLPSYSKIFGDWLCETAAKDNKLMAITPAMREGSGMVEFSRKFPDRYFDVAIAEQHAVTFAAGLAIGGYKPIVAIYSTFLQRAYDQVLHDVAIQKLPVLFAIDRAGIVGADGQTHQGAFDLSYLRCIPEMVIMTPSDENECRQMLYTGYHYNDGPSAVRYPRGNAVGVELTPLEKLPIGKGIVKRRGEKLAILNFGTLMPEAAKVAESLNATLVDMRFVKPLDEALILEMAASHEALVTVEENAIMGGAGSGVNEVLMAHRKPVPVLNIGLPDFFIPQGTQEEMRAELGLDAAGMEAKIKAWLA
Kind of assay: DXPS-IspC coupled assay (Morrison Ki); also CD detection of the PLThDP adduct and photo-crosslink in-gel fluorescence labeling. The assay is classed as biochemical.

As for `C#CCCC1(CCOP(=O)(O)C(C)=O)N=N1` [compound 1, ABP 1], the affinity, expressed as Ki, was 1600 ± 220 nM.

The values are drawn from PMC11562961, “An activity-based probe for antimicrobial target DXP synthase, a thiamin diphosphate-dependent enzyme” (Frontiers in chemical biology, 2024).
